In US9119805B2, “Therapy and prevention of problem drinking” (THE UNIVERSITY OF SYDNEY, priority 2009, dated 2015):

System: alcohol-dependent adults and non-dependent problem drinkers
Test: Human Study 1: intranasal oxytocin, stress and alcohol-related cues
Format: in vivo
Details: during presentation of stress and alcohol cues, versus placebo
Method: The underlying mechanisms of intranasal oxytocin during exposure to stress and alcohol related cues in adult alcohol-dependent and adult non-dependent problem drinkers are determined.
In particular, at least twenty male and female adults reporting alcohol dependence according to the Diagnostic and Statistical Manual of Mental Disorders, Fourth Edition (DSM-IV) as determined by the Structured Clinical Interview for the DSM-IV (SCID-IV) are recruited from the community to participate in a laboratory based investigation on the role of oxytocin in stress-related alcohol craving. […]
Subjects returning to the Brain and Mind Research Institute on the afternoon of the final day of testing are evaluated. Bloods and saliva are taken, and plasma oxytocin and cortisol levels and saliva cortisol are determined and compared to baseline levels before commencement of therapy. […] Changes in mood, drinking behavior and neuropsychology are evaluated for both groups by comparison with baseline evaluations. Changes in smoking behavior are evaluated by FTND testing and comparison with baseline evaluations. HR and BP records over the period and at cessation are also determined and compared to baseline levels before commencement of therapy. […]

Compound: CC[C@H](C)[C@@H]1NC(=O)[C@H](Cc2ccc(O)cc2)NC(=O)[C@@H](N)CSSC[C@@H](C(=O)N2CCC[C@H]2C(=O)N[C@@H](CC(C)C)C(=O)NCC(N)=O)NC(=O)[C@H](CC(N)=O)NC(=O)[C@H](CCC(N)=O)NC1=O [oxytocin]
- anxiety and stress: lower
- subjective craving for alcohol: lower
